Measured values from patent US20190256929A1, “PHARMACODYNAMIC BIOMARKERS FOR PERSONALIZED CANCER CARE USING EPIGENETIC MODIFYING AGENTS” (ORYZON GENOMICS, S.A., priority 2016, published 2019).

What was measured:
[1] = test system: panel of 14 cell lines (small cell lung cancer, non-small-cell lung cancer, acute myelogenic leukemia, acute lymphoblastic T-cell leukemia); assay: RNA-seq differential gene expression of PD markers in a panel of 14 cell lines; type: cell-based, human; settings: 5 nM, 6 days
Description: A panel of 14 cell lines was treated with (trans)-N1-((1R,2S)-2-phenylcyclopropyl)cyclohexane-1,4-diamine (5 nM) or control vehicle for 6 days. The panel included eight small cell lung cancer cell lines (COLO 668, DMS 53, NCI-H146, NCI-H187, NCI-H446, NCI-H510A, NCI-H1417, SHP-77), two non-small-cell lung cancer cell lines (CAL-12T, NCI-H441), two acute myelogenic leukemia cell lines (KASUMI, OCI-AML2), and two acute lymphoblastic T-cell leukemia cell lines (JURKAT, SUP-T1).
Each cell line-treatment pair contained two to four biological replicates.
Expression data were obtained from whole transcriptomic RNA sequencing (RNA-seq) by Illumina, Inc. (San Diego, Calif.). The Illumina HiSeq machine generates raw base calls in reads of 50 or 100 bp length, which are subjected to several data analysis steps. The RNA-seq is conducted at 40 to 50 million reads per sample. This number provides relatively high sensitivity to detect low-expressed genes while allowing for cost-effective multiplexing of samples. RNA is prepared by standard kits and RNA libraries by polyA TruSeq Illumina kits. 100 ng of mRNA per cell line is used for each RNA-seq reaction. A number of quality control procedures are applied to the RNA-seq data for each sample. The Illumina HiSeq software reports the total number of clusters (DNA fragments) loaded in each lane, percent passing sequencing quality filters (which identifies errors due to overloading and sequencing chemistry), a phred quality score for each base of each sequence read, overall average phred scores for each sequencing cycle, and overall percent error (based on alignment to the reference genome). For each RNA-seq sample, the percentage of reads that contain mitochondrial and ribosomal RNA was calculated. The FASTQC package was used to provide additional QC metrics (base distribution, sequence duplication, overrepresented sequences, and enriched kmers) and a graphical summary. Raw reads were aligned against the human genome (hg19) using GSNAP and recommended options for RNASeq data. In addition to the genome sequence, GSNAP is given a database of human splice junctions and transcripts based on Ensembl v73. Resulting SAM files are then converted to sorted BAM files using Samtools. Gene expression values are calculated both as RPKM values following (Mortazavi A. et al. (2008) Nature Methods 5:621-628) and as read counts.
Differential gene expression analysis was performed using the DESeq2 package (Love M. I. et al. (2014) Genome Biology 15:550). Read counts from RNA-seq data were analyzed via a multi-factor generalized linear model of the negative binomial family, considering both treatment and the cell line type as factors that explain the changes in gene expression values.
The following filtering process was applied to identify genes that can serve as PD markers in surrogate tissues (skin or blood): • 1. […] The minimal expression level of the gene in normal blood and skin tissues was greater than one read per kilobase per million reads (RPKM, Mortazavi et al.), as obtained from the Genotype-Tissue Experssion (GTEx) project (The GTEx Consortium (2015) Science 348(6235):648-660). • 4. The minimal expression level of the gene in PBMC tissues was greater than 20 fragments per kilobase per million (FPKM; Trapnell C. et al. (2010) Nature Biotechnology 28:511-515) as obtained from the Ohmomo et al. study (Ohmomo H. et al. (2014) PLOS ONE 9(8):1-11). • 5. The gene is a target of LSD1, as determined by chromatin immunoprecipitation (ChIP) assay from the Adamo et al. study, or interacts with the LSD1 gene, as annotated by the BioGRID database (thebiogrid.org).
Additionally, we analyzed differential gene expression for a set of 35 genes which were previously identified as predictive biomarkers of response to LSD1 treatment.
Differentially expressed pathway analysis was done by the MetaBase R Library (Thompson Reuters).

PDX model FHSC04 = assay: RNA-seq PD gene change in SCLC PDX model FHSC04 treated in vivo; set-up: species or system mice; settings: 400 μg/kg oral gavage
Description: To confirm the results obtained for small cell lung cancer cell line xenograft, changes in PD markers Notch1, ASCL1 and GRP were evaluated in PDX model FHSC04 treated in vivo with LSD1i (trans)-N1-((1R,2S)-2-phenylcyclopropyl)cyclohexane-1,4-diamine (FIG. 13). Eight to twelve-week-old NOD scid gamma mice were implanted with 1.0×10^6 disaggregated cells from PDX model FHSC04 in 100 μl of 1:1 HITES media:Matrigel. […] Once tumor volume reached 150-200 mm^3, mice were randomly assigned to treatment groups for 21-35 days, depending on the kinetics of growth in the given model. Animals were treated with saline or with 400 μg/kg ((trans)-N1-((1R,2S)-2-phenylcyclopropyl)cyclohexane-1,4-diamine, delivered by oral gavage once every 7 days, dissolved to 10 ml/kg with 0.9% saline solution. For the 10-day treatment in FHSC04 used for molecular analyses, an additional dose of 400 μg/kg (trans)-N1-((1R,2S)-2-phenylcyclopropyl)cyclohexane-1,4-diamine was given 4 hours before tissue collection.
For RNA-seq analyses using PDX samples in vivo, the Ultra RNA Library Prep Kit for Illumina (New England BioLabs; catalog E753L) was used to generate libraries from total RNA. All library preparation was conducted according to the manufacturer's instructions. Single-end sequencing (50 bp) was performed using an Illumina HiSeq 2500, reads of low quality were filtered prior to alignment to the hg19 genome build using TopHat v2.0.12 (Trapnell et al. Bioinformatics 2009 May 1; 25(9): 1105-1111). In vivo PDX samples were also aligned to mm9, where the mouse and human alignments from a given sample were compared, discarding from downstream analysis those reads which had fewer mismatches to mouse, relative to human. Cuffdiff v2.1.1 (Trapnell et al. Nat Biotechnol. 2013 January; 31(1):46-53) was used to generate fragment per kilobase per million (FPKM) expression values. Counts (CPM) were generated from TopHat alignments using the Python package HTSeq v0.6.1 (Anders et al. Bioinformatics. 2015 Jan. 15; 31(2): 166-169) using the “intersection-strict” overlap mode. […]

[2] = RNA-seq, median across all cell lines, vs vehicle

N[C@H]1CC[C@H](N[C@@H]2C[C@H]2c2ccccc2)CC1 [RG6016, (trans)-N1-((1R,2S)-2-phenylcyclopropyl)cyclohexane-1,4-diamine]
ASCL1 differential gene expression after treatment (in words) ([1]; RNA-seq): very significantly down-regulated
GRP differential gene expression after treatment (in words) ([1]; RNA-seq): very significantly down-regulated
CNN2 Median Log2 FC [1, 2]: 0.35
DENND5A Median Log2 FC [1, 2]: 0.32
NOTCH1 Median Log2 FC [1, 2]: 0.49
VIM Median Log2 FC [1, 2]: 0.46
ZFP36L1 Median Log2 FC [1, 2]: 0.27
ASCL1 Median Log2 FC ([1]; RNA-seq, vs vehicle): −0.16
GRP Median Log2 FC ([1]; RNA-seq, vs vehicle): −0.26
development NOTCH signaling pathway, differentially expressed pathway analysis ([1]; MetaBase R Library, RNA-seq data): one of the most significantly differentially expressed pathway
ASCL1 transcript regulation (FIG. 13) (PDX model FHSC04): down regulation
GRP transcript regulation (FIG. 13) (PDX model FHSC04): down regulation
NOTCH1 transcript regulation (FIG. 13) (PDX model FHSC04): up regulation
